Experimental data from publication PMC11351550, “Synthesis, Cytotoxicity and Antioxidant Activity Evaluation of Some Thiazolyl–Catechol Compounds” (Antioxidants, 2024).
Like-named read-outs stand apart in the source and are kept apart here.

Legend:
[1] = DPPH radical-scavenging assay; type: biochemical; details: 30 min in the dark, 517 nm; read-out: IC50 against DPPH•
Procedure: (§1) The stock solutions of the reference antioxidants (ascorbic acid, Trolox, EDTA-Na2) and compounds 3a–j were prepared by dissolving the solid powders in DMSO, obtaining 2 mM stock solutions. Following this, an additional set of solutions (0.2 mM) for each compound was obtained by dilution with DMSO. Absorption spectra of the tested compounds covering the range from 400 nm to 800 nm were recorded, indicating no absorption peaks near the wavelengths employed in the experiments. All measurements in the presented assays were made against blank samples. To quantify the activity of the compounds 3a–j, for the antiradical assays (DPPH and ABTS) and ferrous ion chelation, IC50 was calculated using Equation (1), while for the electron transfer assays (TAC, RP, FRAP and CUPRAC), the reference number of mole equivalent activity for each compound was calculated using Equation (2). (1) radical scavenging (%)=control absorbance−sample absorbance/control absorbance×100 (2) equivalents of control=sample absorbance/control absorbance
The DPPH˙ (2,2-diphenyl-1-picrylhydrazyl) radical-scavenging assay, initially reported by Brand-Williams et al., relies on transferring a hydrogen atom from the antioxidant substrate being analyzed to the stable violet radical of DPPH˙. This action converts DPPH˙ into a nonradical stable yellow compound. The reduction in absorbance of the DPPH˙ at λ = 517 nm corresponds to the quantity of neutralized reagent. To perform the DPPH assay, we took 50, 75, 100, 125, and 150 µL of each sample from their 0.2 mM stock solutions, then we adjusted the volumes with DMSO to ensure all samples reached a uniform final volume. These solutions were mixed with 1 mL of DPPH reagent and incubated in the dark for 30 min, as presented in literature reports.

[2] = ABTS radical cation decolorization assay; type: biochemical; details: 10 min, pH 7.4, 734 nm; read-out: IC50 against ABTS•+
Procedure: as §1
The decolorization assay of the green ABTS^•+ (2,2′-azinobis-(3-ethylbenzothiazoline-6-sulfonic acid) to ABTS, based on the report of Re et al., was conducted following our group’s published report. The chemical stability of the ABTS^•+ reagent prior to use was checked at λ = 734 nm over one hour, ensuring a consistent absorption (approximately equal to 0.7). The reagent was prepared in potassium phosphate buffer (0.1 M, pH = 7.4) and activated overnight using MnO2 [17]. In all cuvettes, we added 100 μL of the tested compound solutions (0.2 mM) in increasing concentrations up to 200 µL and 2000 µL of the ABTS^•+ reagent. The resulting mixtures were thoroughly shaken for 10 min at room temperature, in the absence of light. The optical absorbance of the resulting mixtures was then measured by spectrophotometry at λ = 734 nm.

[3] = Total Antioxidant Capacity (TAC) assay; type: biochemical; details: 95 °C, 1.5 h, 695 nm
Procedure: as §1
The Total Antioxidant Capacity (TAC) assay was conducted following the methodology outlined in our previous publication, which was based on initial reports from the literature. A volume of 10 mL of the reagent (0.6 M H2SO4, 28 mM Na3PO4 and 4 mM (NH4)6Mo7O24) and 1000 µL of the compound and standard solutions dispensed from the 2 mM stock solutions were mixed in sealed glass test tubes and incubated in a water bath at 95 °C for 1.5 h. After cooling the test tubes to room temperature, 1000 µL of each solution was diluted with 1000 µL of water. The absorbance of the solutions was then measured at λ = 695 nm.

[4] = Reducing power (RP) assay; type: biochemical; details: 50 °C, 20 min, pH 6.6
Procedure: as §1
In the reducing power (RP) assay, the tested compounds performed the reduction of ferric ions from potassium ferricyanide, forming ferrocyanide, which gives a blue complex. The protocol followed is an adaptation of previously reported methodologies. In glass test tubes, 1000 µL of solutions containing compounds and standards measured from the 0.2 mM stock solutions were mixed with 400 µL of phosphate buffer (0.2 M, pH = 6.6) and 400 µL of K3[Fe(CN)6] solution (1% w/v). The tubes were sealed and incubated for 20 min in a water bath at 50 °C. After cooling to room temperature, 500 µL of trichloroacetic acid (10% w/w) was added to all test tubes The resulting mixtures were left for 0.5 h at room temperature. Subsequently, 250 µL of the resulting solutions were mixed with 140 µL of FeCl3 solution (0.1% w/v) and 1000 µL of distilled water, and the absorbance of the resulting solutions was determined at λ = 695 nm.

[5] = Ferric-Reducing Antioxidant Potential (FRAP) assay; type: biochemical; details: pH 3.6, 593 nm
Procedure: as §1
The Ferric-Reducing Antioxidant Potential (FRAP) assay relies on the transfer of an electron from the antioxidant being assessed to Fe^3+, resulting in its conversion to Fe^2+. The resulting Fe^2+ ions are then chelated by 2,4,6-tripyridyl-s-triazine, giving a blue-colored complex, with an absorption maximum at λ = 593 nm. A 500 µL amount of the solutions (0.2 mM) of compounds and reference compounds was mixed with 600 µL FRAP reagent and 1200 µL acetate buffer (0.3 M, pH = 3.6), according to previous reports. The resulting solutions were mixed well in the dark, and their absorbance was measured spectrophotometrically.

[6] = CUPRAC (CUPric-Reducing Antioxidant Capacity) assay; type: biochemical; details: 30 min, 450 nm
Procedure: as §1
The electron-donating capacity of compounds was assessed using the CUPRAC (CUPric-Reducing Antioxidant Capacity) method. The protocol for this assay is a modification of the reports of Alam et al., Özyürek et al., and Apak et al.. Volumes of 250 µL of CuCl2 10 mM, 1 mL of ammonium acetate buffer 1 M, and 250 µL of 7.5 mM neocuproine in ethanol were mixed with 125 µL of samples and reference compound solutions (0.2 mM). The mixtures were shaken for 30 min in the dark; after that, their absorbance was determined spectrophotometrically at λ = 450 nm.

[7] = Ferrous ion chelation assay (ferrozine); type: biochemical; design: key: - represents negligible activity
Procedure: as §1
To evaluate the ability of compounds to chelate ferrous ions, an assay was performed using an adaptation of Dinis et al.’s initial report. The solutions of the tested compounds (2 mM) were mixed well with 500 µL of FeSO4 (0.125 mM), and 500 µL of ferrozine 0.315 mM. After 10 min, the absorbance of the samples was determined spectrophotometrically at λ = 562 nm. EDTA-Na2 was used as a positive control, due to its exceptional ion chelation properties.

[8] = system: human pulmonary malignant cells (A549); assay: Alamar Blue cytotoxicity assay, A549 cells; type: cell-based; details: for IC50: 48 h exposure, Alamar Blue, read-out: IC50 (±SD) A549; for Selectivity Index: ratio between the calculated IC50 on BJ and A549 cells, 48 h
Procedure: (§2) BJ cells were maintained in Dulbecco’s modified Eagle’s medium (DMEM) with low glucose (1 g/L), while the A549 cells were seeded in DMEM with high glucose (5 g/L). All media were supplemented with 10% fetal bovine serum (FBS) and 1% Penicillin/Streptomycin. […] Cellular media were refreshed every other day. Cells were either subcultured or used in experiments once they reached a confluency of 80–90%.
(§3) The cytotoxicity of the synthesized compounds was evaluated by Alamar Blue (AB) assays performed on both cell lines, A549 and BJ, after a 48 h exposure, as previously reported.
(§4) Briefly, approximately 7000 A549 cells and 4000 normal BJ cells were seeded in 100 µL cellular media in 96-well plates to achieve a confluency of 70–80% at the end of the experiment and left to attach overnight before exposure. […] Post-exposure, the media were removed, and the AB assay was performed, with cells being incubated with a 200 µM solution of resazurin for 4 h. The obtained fluorescence was measured at λexcitation = 530/25; λemission = 590/35.
(§5) The experiments included three biological replicates, each one including three technical replicates. The negative control (NC) consisted of cells exposed to a cell culture medium containing 0.2% DMSO and was used for data normalization (100%).

[9] = system: normal human foreskin fibroblasts (BJ); assay: Alamar Blue cytotoxicity assay, BJ cells; type: cell-based; details: for IC50: 48 h exposure, Alamar Blue
Procedure: as §2, §3, §4, §5

IC50 [1] [µM]	IC50 [2] [µM]	SMILES	TAC Eq Ascorbic Acid [3] [Eq Ascorbic Acid]	RP Eq Ascorbic Acid [4] [Eq Ascorbic Acid]	RP Eq Trolox [4] [Eq Trolox]	FRAP Eq Trolox [5] [Eq Trolox]	CUPRAC Eq Trolox [6] [Eq Trolox]	ferrous ion chelation percent ([7]; 0.25 µM)	ferrous ion chelation percent ([7]; 0.5 µM)	ferrous ion chelation percent ([7]; 1 µM)	ferrous ion chelation percent ([7]; 1.5 µM)	ferrous ion chelation percent ([7]; 2 µM)	IC50 [8] [µM]	Selectivity Index [8]	IC50 [9] [µM]	toxicity on BJ cells ([9]; 48 h, result in words)	IC50 ([8]; Homo sapiens, A549) [µM]	IC50 ([9]; Homo sapiens, Fibroblast) [µM]	decrease of viability of BJ cells ([9]; highest tested dose, 48 h)
47.8	15.7	Oc1ccc(-c2csc(-c3ccc(Cl)cc3)n2)cc1O [Compound 3c]	0.83	1.47	1.22	1.10	2.38	-	-	-	-	-	8.16	4.39	35.8				
38.1	15.9	Cc1c(C)c2c(c(C)c1O)CCC(C)(C(=O)O)O2 (stereo not shown) [Trolox, reference compound]																	
53.5		O=C1O[C@H]([C@@H](O)CO)C(O)=C1O [Ascorbic acid, reference compound]																	
51.3	12	Cc1nc(-c2ccc(O)c(O)c2)cs1 [Compound 3a]	0.38	1.73	1.44	0.95	3.17	-	-	-	-	-	31.5	>3.17	> 100	no significant toxicity on BJ cells			
46.8	13.9	Cc1cccc(-c2nc(-c3ccc(O)c(O)c3)cs2)c1 [Compound 3e, 4-(2-(m-tolyl)thiazol-4-yl)benzene-1,2-diol]	0.91	1.64	1.37	1.07	3.13	-	-	-	-	-		7.23			6.46	46.8	
45.9	14.1	Oc1ccc(-c2csc(-c3csc(-c4ccccc4)n3)n2)cc1O [Compound 3i, 4-(2′-phenyl-[2,4′-bithiazol]-4-yl)benzene-1,2-diol]	0.51	1.63	1.35	1.14	1.84	-	-	-	-	-		5.67			5.18	29.4	
		O=C([O-])CN(CCN(CC(=O)[O-])CC(=O)O)CC(=O)O.[Na+].[Na+] [EDTA–Na2, EDTA-Na2, reference compound]						47.21%	55.24%	73.41%	86.52%	96.20%							
36.7	7.59	Oc1ccc(-c2csc(-c3ccncc3)n2)cc1O [Compound 3g, 4-(2-(pyridin-4-yl)thiazol-4-yl)benzene-1,2-diol]	0.64	2.04	1.69	1.63	3.60	-	-	-	-	-		>13.62			7.34	> 100	approximately 20%
40.3	13.5	Oc1ccc(-c2csc(-c3ccccn3)n2)cc1O [Compound 3h, 4-(2-(pyridin-2-yl)thiazol-4-yl)benzene-1,2-diol]	1.34	2.06	1.71	1.03	2.13	-	-	-	-	-		5.84			13.1	76.7	
